Experiments:
Format in all cases: in vivo
[1] = system: redroot pigweed (Amaranthus retroflexus, AMARE); test: Pre-emerge test, greenhouse herbicide activity screening; details: pre-emerge, 14 days after application, scale 0-100
In short: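 Plants grown in 10 cm pots of sandy loam mix received acetone-dissolved compounds through a moving flat-fan nozzle. Doses ranged from 15 to 1000 g ai/ha. Pre-emerge pots were seeded one day earlier, post-emerge pots 8–21 days earlier. Fourteen days on, each pot was graded 0–100 for damage.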

[2] = system: barnyardgrass (Echinochloa crus-galli, ECHCG); test: as above; details: pre-emerge, 14 days after application, scale 0-100
In short: (§1)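 Visual ratings on a 0-100 scale (0 no damage, 100 all plants dead) were taken at 14 days after treatment. Rates of 15-1000 g ai/ha in acetone, 187 l/ha, were sprayed onto soil one day after planting (pre-emerge) or onto 2-3 leaf plants with 0.25% v/v surfactant (post-emerge).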

[3] = system: green foxtail (Setaria viridis, SETVI); test: as above; details: pre-emerge, 14 days after application, scale 0-100
In short: as §1

[4] = system: ivyleaf morningglory (Ipomoea hederacea, IPOHE); test: as above; details: pre-emerge, 14 days after application, scale 0-100
In short: as §1

[5] = system: johnsongrass (Sorghum halepense, SORHA); test: as above; details: pre-emerge, 14 days after application, scale 0-100
In short: as §1

[6] = system: lambsquarters (Chenopodium album, CHEAL); test: as above; details: pre-emerge, 14 days after application, scale 0-100
In short: as §1

[7] = system: large crabgrass (Digitaria sanguinalis, DIGSA); test: as above; details: pre-emerge, 14 days after application, scale 0-100
In short: as §1

[8] = system: sicklepod (Cassia obtusifolia, CASOB); test: as above; details: pre-emerge, 14 days after application, scale 0-100
In short: as §1

[9] = system: velvetleaf (Abutilon theophrasti, ABUTH); test: as above; details: pre-emerge, 14 days after application, scale 0-100
In short: as §1

[10] = system: field corn (Zea mays L., var. Dekalb 535, CORN); test: Pre-emerge test, crop safety; details: pre-emerge, 14 days after application, scale 0-100
In short: (§2)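 Sandy loam pots; pre-emerge: sown 1 d pre-spray, surface-watered after, then bottom-watered. Post-emerge: sown 8–21 d before, 2–3 leaf stage, + 0.25% v/v NIS, bottom-watered. Acetone, 187 l/ha track spray, 15–1000 g ai/ha. 0–100 injury score, day 14.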

[11] = system: upland rice (Oryza sp., var. Tebonnet, RICE); test: Pre-emerge test, crop safety; details: pre-emerge, 14 days after application, scale 0-100
In short: as §2

[12] = system: barnyardgrass (Echinochloa crus-galli, ECHCG); test: Post-emerge test, greenhouse herbicide activity screening; details: post-emerge, 14 days after application, rating scale 0-100
In short: (§3)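 Applied at 15–1000 g ai/ha from acetone in 187 l/ha spray volume. Post-emergence applications included 0.25% v/v non-ionic surfactant and reached plants sown 8–21 days before. Pre-emergence applications were incorporated by surface watering. Efficacy or crop damage was rated on a 0–100 scale after 14 days.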

[13] = system: green foxtail (Setaria viridis, SETVI); test: as above; details: post-emerge, 14 days after application, rating scale 0-100
In short: as §3

[14] = system: ivyleaf morningglory (Ipomoea hederacea, IPOHE); test: as above; details: post-emerge, 14 days after application, rating scale 0-100
In short: as §3

[15] = system: johnsongrass (Sorghum halepense, SORHA); test: as above; details: post-emerge, 14 days after application, rating scale 0-100
In short: as §3

[16] = system: lambsquarters (Chenopodium album, CHEAL); test: as above; details: post-emerge, 14 days after application, rating scale 0-100
In short: as §3

[17] = system: large crabgrass (Digitaria sanguinalis, DIGSA); test: as above; details: post-emerge, 14 days after application, rating scale 0-100
In short: as §3

[18] = system: redroot pigweed (Amaranthus retroflexus, AMARE); test: as above; details: post-emerge, 14 days after application, rating scale 0-100
In short: as §3

[19] = system: sicklepod (Cassia obtusifolia, CASOB); test: as above; details: post-emerge, 14 days after application, rating scale 0-100
In short: as §3

[20] = system: velvetleaf (Abutilon theophrasti, ABUTH); test: as above; details: post-emerge, 14 days after application, rating scale 0-100
In short: as §3

[21] = system: field corn (Zea mays L., var. Dekalb 535, CORN); test: Post-emerge test, crop safety; details: post-emerge, 14 days after application, rating scale 0-100
In short: as §1

[22] = system: upland rice (Oryza sp., var. Tebonnet, RICE); test: Post-emerge test, crop safety; details: post-emerge, 14 days after application, rating scale 0-100
In short: as §1

For `CCOC(=O)C(C)Oc1ccc(-n2c(=O)cc(C(F)(F)F)n(C)c2=O)c(NC(=O)c2ccc3ccccc3c2)c1` (stereo not shown) [2-146], the “phytotoxicity rating AMARE” value ([1]; 63 g ai/ha) was 30, the “phytotoxicity rating AMARE” value ([1]; 250 g ai/ha) was 80 and the “phytotoxicity rating ECHCG” value ([2]; 63 g ai/ha) was 0. For the same compound, the “phytotoxicity rating ECHCG” value ([2]; 250 g ai/ha) was 0, the “phytotoxicity rating SETVI” value ([3]; 63 g ai/ha) was 0 and the “phytotoxicity rating SETVI” value ([3]; 250 g ai/ha) was 0. The “phytotoxicity rating IPOHE” value ([4]; 63 g ai/ha) was 40, the “phytotoxicity rating IPOHE” value ([4]; 250 g ai/ha) was 20 and the “phytotoxicity rating SORHA” value ([5]; 63 g ai/ha) was 0. For the same compound, the “phytotoxicity rating SORHA” value ([5]; 250 g ai/ha) was 0, the “phytotoxicity rating CHEAL” value ([6]; 63 g ai/ha) was 90 and the “phytotoxicity rating CHEAL” value ([6]; 250 g ai/ha) was 100. The “phytotoxicity rating DIGSA” value ([7]; 63 g ai/ha) was 0, the “phytotoxicity rating DIGSA” value ([7]; 250 g ai/ha) was 0 and the “phytotoxicity rating CASOB” value ([8]; 63 g ai/ha) was 20. The “phytotoxicity rating CASOB” value ([8]; 250 g ai/ha) was 0, the “phytotoxicity rating ABUTH” value ([9]; 63 g ai/ha) was 70 and the “phytotoxicity rating ABUTH” value ([9]; 250 g ai/ha) was 10. For the same compound, the “phytotoxicity rating CORN (crop damage)” value ([10]; 63 g ai/ha) was 0, the “phytotoxicity rating CORN (crop damage)” value ([10]; 250 g ai/ha) was 0 and the “phytotoxicity rating RICE (crop damage)” value ([11]; 63 g ai/ha) was 0. For the same compound, the “phytotoxicity rating RICE (crop damage)” value ([11]; 250 g ai/ha) was 0, the ECHCG phytotoxicity rating ([12]; 63 g ai/ha) was 0 and the ECHCG phytotoxicity rating ([12]; 250 g ai/ha) was 0. The SETVI phytotoxicity rating ([13]; 63 g ai/ha) was 0, the SETVI phytotoxicity rating ([13]; 250 g ai/ha) was 0 and the IPOHE phytotoxicity rating ([14]; 63 g ai/ha) was 40. For the same compound, the IPOHE phytotoxicity rating ([14]; 250 g ai/ha) was 50, the SORHA phytotoxicity rating ([15]; 63 g ai/ha) was 0 and the SORHA phytotoxicity rating ([15]; 250 g ai/ha) was 0. It also gave a CHEAL phytotoxicity rating ([16]; 63 g ai/ha) of 30, a CHEAL phytotoxicity rating ([16]; 250 g ai/ha) of 40 and a DIGSA phytotoxicity rating ([17]; 63 g ai/ha) of 0. For the same compound, the DIGSA phytotoxicity rating ([17]; 250 g ai/ha) was 0, the AMARE phytotoxicity rating ([18]; 63 g ai/ha) was 30 and the AMARE phytotoxicity rating ([18]; 250 g ai/ha) was 30. The CASOB phytotoxicity rating ([19]; 63 g ai/ha) was 20, the CASOB phytotoxicity rating ([19]; 250 g ai/ha) was 50 and the ABUTH phytotoxicity rating ([20]; 63 g ai/ha) was 70. For the same compound, the ABUTH phytotoxicity rating ([20]; 250 g ai/ha) was 75, the “CORN phytotoxicity rating (crop damage)” value ([21]; 63 g ai/ha) was 10 and the “CORN phytotoxicity rating (crop damage)” value ([21]; 250 g ai/ha) was 5. The “RICE phytotoxicity rating (crop damage)” value ([22]; 63 g ai/ha) was 10 and the “RICE phytotoxicity rating (crop damage)” value ([22]; 250 g ai/ha) was 10.
With `COc1cc2ccccc2cc1C(=O)Nc1c(OC)c(Cl)cc(F)c1-n1c(=O)cc(C(F)(F)F)n(C)c1=O` [2-152] the “phytotoxicity rating AMARE” value ([1]; 63 g ai/ha) was 100, the “phytotoxicity rating AMARE” value ([1]; 250 g ai/ha) was 100 and the “phytotoxicity rating ECHCG” value ([2]; 63 g ai/ha) was 10. The “phytotoxicity rating ECHCG” value ([2]; 250 g ai/ha) was 70, the “phytotoxicity rating SETVI” value ([3]; 63 g ai/ha) was 30 and the “phytotoxicity rating SETVI” value ([3]; 250 g ai/ha) was 70. The “phytotoxicity rating IPOHE” value ([4]; 63 g ai/ha) was 0, the “phytotoxicity rating IPOHE” value ([4]; 250 g ai/ha) was 0 and the “phytotoxicity rating SORHA” value ([5]; 63 g ai/ha) was 0. The “phytotoxicity rating SORHA” value ([5]; 250 g ai/ha) was 30, the “phytotoxicity rating CHEAL” value ([6]; 63 g ai/ha) was 95 and the “phytotoxicity rating CHEAL” value ([6]; 250 g ai/ha) was 100. For the same compound, the “phytotoxicity rating DIGSA” value ([7]; 63 g ai/ha) was 50, the “phytotoxicity rating DIGSA” value ([7]; 250 g ai/ha) was 80 and the “phytotoxicity rating CASOB” value ([8]; 63 g ai/ha) was 0. For the same compound, the “phytotoxicity rating CASOB” value ([8]; 250 g ai/ha) was 50, the “phytotoxicity rating ABUTH” value ([9]; 63 g ai/ha) was 60 and the “phytotoxicity rating ABUTH” value ([9]; 250 g ai/ha) was 90. The “phytotoxicity rating CORN (crop damage)” value ([10]; 63 g ai/ha) was 0, the “phytotoxicity rating CORN (crop damage)” value ([10]; 250 g ai/ha) was 0 and the “phytotoxicity rating RICE (crop damage)” value ([11]; 63 g ai/ha) was 0. The “phytotoxicity rating RICE (crop damage)” value ([11]; 250 g ai/ha) was 30, the ECHCG phytotoxicity rating ([12]; 63 g ai/ha) was 30 and the ECHCG phytotoxicity rating ([12]; 250 g ai/ha) was 50. The SETVI phytotoxicity rating ([13]; 63 g ai/ha) was 30, the SETVI phytotoxicity rating ([13]; 250 g ai/ha) was 50 and the IPOHE phytotoxicity rating ([14]; 63 g ai/ha) was 100. For the same compound, the IPOHE phytotoxicity rating ([14]; 250 g ai/ha) was 100, the SORHA phytotoxicity rating ([15]; 63 g ai/ha) was 20 and the SORHA phytotoxicity rating ([15]; 250 g ai/ha) was 40. For the same compound, the CHEAL phytotoxicity rating ([16]; 63 g ai/ha) was 98, the CHEAL phytotoxicity rating ([16]; 250 g ai/ha) was 100 and the DIGSA phytotoxicity rating ([17]; 63 g ai/ha) was 20. The DIGSA phytotoxicity rating ([17]; 250 g ai/ha) was 30, the AMARE phytotoxicity rating ([18]; 63 g ai/ha) was 100 and the AMARE phytotoxicity rating ([18]; 250 g ai/ha) was 100. For the same compound, the CASOB phytotoxicity rating ([19]; 63 g ai/ha) was 100, the CASOB phytotoxicity rating ([19]; 250 g ai/ha) was 100 and the ABUTH phytotoxicity rating ([20]; 63 g ai/ha) was 100. For the same compound, the ABUTH phytotoxicity rating ([20]; 250 g ai/ha) was 100, the “CORN phytotoxicity rating (crop damage)” value ([21]; 63 g ai/ha) was 15 and the “CORN phytotoxicity rating (crop damage)” value ([21]; 250 g ai/ha) was 30. The “RICE phytotoxicity rating (crop damage)” value ([22]; 63 g ai/ha) was 40 and the “RICE phytotoxicity rating (crop damage)” value ([22]; 250 g ai/ha) was 65.

— patent publication US6355799B1, “Substituted benzene compounds, process for their preparation, and herbicidal and defoliant compositions containing them” (ISK Americas Incorporated, priority 1997, dated 2002)
